Measurements taken from patent US20050228016A1, “TETRAHYDROQUINOLINES FOR MODULATING THE EXPRESSION OF EXOGENOUS GENES VIA AN ECDYSONE RECEPTOR COMPLEX” (priority 2002, published 2005).

Legend:
[1] = molecular target: T1, Bombyx mori EcR (VP16-BmEcR, CVBE) (Bombyx mori, UniProt P49881); test: Z3 assay (HEK-293 clone Z3 with CVBE and 6x EcRE LacZ, β-galactosidase reporter); assay type: cell-based; details: average of two wells; for Fold Induction Average, Z3V1 Assay 33 μM: 48 h
T1 construct: expressed in transfected cells
T1 sequence (P49881 86-606): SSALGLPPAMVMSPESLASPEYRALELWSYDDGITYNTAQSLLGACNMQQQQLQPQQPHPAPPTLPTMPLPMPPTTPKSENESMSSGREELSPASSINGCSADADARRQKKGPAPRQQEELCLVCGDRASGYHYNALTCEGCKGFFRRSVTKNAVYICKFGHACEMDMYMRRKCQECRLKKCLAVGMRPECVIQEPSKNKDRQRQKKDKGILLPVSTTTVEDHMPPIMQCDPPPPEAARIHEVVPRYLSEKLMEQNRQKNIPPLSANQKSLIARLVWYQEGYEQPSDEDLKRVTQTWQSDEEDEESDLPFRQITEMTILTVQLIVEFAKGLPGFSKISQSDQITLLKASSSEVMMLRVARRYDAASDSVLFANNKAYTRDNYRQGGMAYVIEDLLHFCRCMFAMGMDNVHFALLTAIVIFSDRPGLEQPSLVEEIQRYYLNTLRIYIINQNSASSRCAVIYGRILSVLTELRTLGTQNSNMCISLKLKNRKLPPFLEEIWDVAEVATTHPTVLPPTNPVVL
From the text: Dr. F. Gage provided a population of stably transformed cells containing CVBE and 6× EcRE as described in (Suhr et. al. 1998). Human 293 kidney cells, also referred to as HEK-293 cells, were sequentially infected with retroviral vectors encoding first the switch construct CVBE, and subsequently the reporter construct 6× EcRE Lac Z. The switch construct contained the coding sequence for amino acids 26-546 from Bombyx nori EcR (BE) (Iatrou) inserted in frame and downstream of the VP16 transactivation domain (VBE). A synthetic ATG start codon was placed under the control of cytomegalovirus (CVBE) immediate early promoter and flanked by long terminal repeats (LTR). The reporter-construct contained six copies of the ecdysone response element (EcRE) binding site placed upstream of LacZ and flanked on both sides with LTR sequences (6× EcRE).
Dilution cloning was used to isolate individual clones. Clones were selected using 450 μg/ml G418 and 100 ng/ml puromycin. Individual clones were evaluated based on their response in the presence and absence of test ligands.
Human 293 kidney cells stably transformed with CVBE and 6× EcRE lack were maintained in Minimum Essential Medium (Mediates, 10-010-CV) containing 10%.FBS (Life Technologies, 26140-087),[…] G418 (Mediates, 30-234-CR), and […] (Sigma, P-7255), at 37° C. in an atmosphere containing 5% CO2 and were subculture when they reached 75% confluence.
Z3 cells were seeded into 96-well tissue culture plates at a concentration of 2.5×10^3 cells per well and incubated at 37° C. in 5% CO2 for twenty-four hours. Stock solutions of ligands were prepared in DMSO. Ligand stock solutions were diluted 100.fold in media and 50 μL of this diluted ligand solution (33 μM) was added to cells.
Reporter gene expression was evaluated 48 hours after treatment of cells, β-galactosidase activity was measured using Gal Screen™ bioluminescent reporter gene assay system from Tropix (GSY1000).
Flanking both constructs are long terminal repeats, G418 and puromycin are selectable markers, CMV is the cytomegalovirus promoter, VBE is coding sequence for amino acids 26-546 from Bombyx mori EcR inserted downstream of the VP16 transactivation domain, 6× EcRE is six copies of the ecdysone response element, lacZ encodes for the reporter enzyme β-galactosidase.

Gal4DBD/AaEcR (DEF) = molecular target: T2, Gal4DBD/AaEcR (DEF) (Aedes aegypti, UniProt P49880); test: cell-based; assay type: cell-based; details: for Fold Induction Average, AA_3T3V1 Assay 33 μM: 3T3 cells, 48 h, average of two wells
T2 construct: The wildtype D, E, and F domains from mosquito Aedes aegypti EcR; expressed in transfected cells; host or cells: 3T3 cells
Experimental: 3T3 cells were trypsinized and plated at 2.5×10^3 cells/well on a 96-well plate. After incubation for 24 h at 37° C. under 5% CO2, cells were transfected with the Gal4DBD/AaEcR (DEF) gene expression cassette and the reporter plasmid, pFRLuc, containing a 5× GAL4 response element and the firefly luciferase gene in serum free media using Superfect (Qiagen). After transfection for 4 h at 37° C., the cells were treated with ligand in serum media. […] Single dose testing was performed at 33 μM.

T2 sequence (P28704 286-520 A311G/G315S/G445S/I449V): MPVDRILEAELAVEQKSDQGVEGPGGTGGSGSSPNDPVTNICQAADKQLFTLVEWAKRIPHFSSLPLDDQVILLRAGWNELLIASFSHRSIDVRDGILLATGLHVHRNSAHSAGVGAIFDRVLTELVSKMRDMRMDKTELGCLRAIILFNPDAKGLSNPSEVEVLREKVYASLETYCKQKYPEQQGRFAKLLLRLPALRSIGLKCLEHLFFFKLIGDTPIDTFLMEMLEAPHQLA
T2 sequence (P49880 405-776): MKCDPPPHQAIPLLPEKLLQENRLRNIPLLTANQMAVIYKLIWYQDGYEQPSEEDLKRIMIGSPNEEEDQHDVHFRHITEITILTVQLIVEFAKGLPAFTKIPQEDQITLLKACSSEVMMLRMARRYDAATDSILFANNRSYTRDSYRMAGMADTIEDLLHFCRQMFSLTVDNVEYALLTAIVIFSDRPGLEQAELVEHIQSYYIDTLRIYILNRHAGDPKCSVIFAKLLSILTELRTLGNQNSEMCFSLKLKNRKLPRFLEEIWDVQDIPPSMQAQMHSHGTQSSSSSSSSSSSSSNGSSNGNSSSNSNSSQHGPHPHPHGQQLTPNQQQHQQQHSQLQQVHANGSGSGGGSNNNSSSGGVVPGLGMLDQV

| Compound | Fold Induction Average, Z3V1 Assay 33 μM [1] [fold] | Fold Induction Average, AA_3T3V1 Assay 33 μM (Gal4DBD/AaEcR (DEF)) [fold] | fold induction at 33 µM ([1]; HEK293, 48 h, read-out: Fold Induction Average, Z3V1 Assay 33 μM) | fold induction at 33 µM (Gal4DBD/AaEcR (DEF); NIH3T3, read-out: Fold Induction Average, AA_3T3V1 Assay 33 μM) |
| --- | --- | --- | --- | --- |
| C[C@H]1C[C@H](Nc2ccccc2)c2ccccc2N1C(=O)c1ccccc1 (relative stereo) [Compound I-67] | 1 | 20 |  |  |
| C[C@H]1C[C@H](Nc2ccccc2)c2ccccc2N1C(=O)c1cccc(F)c1 (relative stereo) [Compound I-68] | 8 | 282 |  |  |
| C[C@H]1C[C@H](Nc2ccccc2)c2ccccc2N1C(=O)c1ccccc1C(F)(F)F (relative stereo) [Compound I-69] | 1 | 2 |  |  |
| C[C@H]1C[C@H](Nc2ccccc2)c2ccccc2N1C(=O)c1cccc(C(F)(F)F)c1 (relative stereo) [Compound I-70] | 26 | 376 |  |  |
| C[C@H]1C[C@H](Nc2ccccc2)c2ccccc2N1C(=O)c1ccc(C(F)(F)F)cc1 (relative stereo) [Compound I-71] | 2 | 291 |  |  |
| Cc1ccc(N[C@H]2C[C@H](C)N(C(=O)c3ccccc3)c3ccc(C)cc32)cc1 (relative stereo) [Compound I-72] | 1 | 114 |  |  |
| Cc1ccc(N[C@H]2C[C@H](C)N(C(=O)c3cccc(F)c3)c3ccc(C)cc32)cc1 (relative stereo) [Compound I-73] | 1 | 207 |  |  |
| Cc1ccc(N[C@H]2C[C@H](C)N(C(=O)c3ccccc3C(F)(F)F)c3ccc(C)cc32)cc1 (relative stereo) [Compound I-74] | 1 | 22 |  |  |
| Cc1ccc(N[C@H]2C[C@H](C)N(C(=O)c3cccc(C(F)(F)F)c3)c3ccc(C)cc32)cc1 (relative stereo) [Compound I-75] | 2 | 13 |  |  |
| Cc1ccc(N[C@H]2C[C@H](C)N(C(=O)c3ccc(C(F)(F)F)cc3)c3ccc(C)cc32)cc1 (relative stereo) [Compound I-76] | 1 | 741 |  |  |
| C[C@H]1C[C@H](Nc2ccc(F)cc2)c2cc(F)ccc2N1C(=O)c1cccc(F)c1 (relative stereo) [Compound I-77] | 153 | 272 |  |  |
| C[C@H]1C[C@H](Nc2ccc(F)cc2)c2cc(F)ccc2N1C(=O)c1ccccc1C(F)(F)F (relative stereo) [Compound I-78] | 3 | 33 |  |  |
| C[C@H]1C[C@H](Nc2ccc(F)cc2)c2cc(F)ccc2N1C(=O)c1cccc(C(F)(F)F)c1 (relative stereo) [Compound I-79] | 137 | 595 |  |  |
| C[C@H]1C[C@H](Nc2ccc(F)cc2)c2cc(F)ccc2N1C(=O)c1ccc(C(F)(F)F)cc1 (relative stereo) [Compound I-80] | 37 | 914 |  |  |
| COc1cccc(C(=O)N2c3ccccc3[C@@H](Nc3ccccc3)C[C@@H]2C)c1 (relative stereo) [Compound I-81] | 1 | 9 |  |  |
| Cc1ccc(C(=O)N2c3ccccc3[C@@H](Nc3ccccc3)C[C@@H]2C)cc1 (relative stereo) [Compound I-82] | 1 | 79 |  |  |

| Compound | Fold Induction Average, Z3V1 Assay 33 μM [1] [fold] | Fold Induction Average, AA_3T3V1 Assay 33 μM (Gal4DBD/AaEcR (DEF)) [fold] | fold induction at 33 µM ([1]; HEK293, 48 h, read-out: Fold Induction Average, Z3V1 Assay 33 μM) | fold induction at 33 µM (Gal4DBD/AaEcR (DEF); NIH3T3, read-out: Fold Induction Average, AA_3T3V1 Assay 33 μM) |
| --- | --- | --- | --- | --- |
| COc1ccc(C(=O)N2c3ccccc3[C@@H](Nc3ccccc3)C[C@@H]2C)cc1 (relative stereo) [Compound I-83] | 8 | 345 |  |  |
| COC(=O)c1ccc(C(=O)N2c3ccccc3[C@@H](Nc3ccccc3)C[C@@H]2C)cc1 (relative stereo) [Compound I-84] | 3 | 508 |  |  |
| Cc1ccc(N[C@H]2C[C@H](C)N(C(=O)c3cccc(C)c3)c3ccc(C)cc32)cc1 (relative stereo) [Compound I-85] | 1 | 3 |  |  |
| Cc1ccc(N[C@H]2C[C@H](C)N(C(=O)c3ccc(C)cc3)c3ccc(C)cc32)cc1 (relative stereo) [Compound I-87] | 1 | 250 |  |  |
| COc1ccc(C(=O)N2c3ccc(C)cc3[C@@H](Nc3ccc(C)cc3)C[C@@H]2C)cc1 (relative stereo) [Compound I-88] | 1 | 213 |  |  |
| COC(=O)c1ccc(C(=O)N2c3ccc(C)cc3[C@@H](Nc3ccc(C)cc3)C[C@@H]2C)cc1 (relative stereo) [Compound I-89] | 1 | 30 |  |  |
| Cc1cccc(C(=O)N2c3ccc(F)cc3[C@@H](Nc3ccc(F)cc3)C[C@@H]2C)c1 (relative stereo) [Compound I-90] | 33 | 433 |  |  |
| COc1cccc(C(=O)N2c3ccc(F)cc3[C@@H](Nc3ccc(F)cc3)C[C@@H]2C)c1 (relative stereo) [Compound I-91] | 107 | 542 |  |  |
| Cc1ccc(C(=O)N2c3ccc(F)cc3[C@@H](Nc3ccc(F)cc3)C[C@@H]2C)cc1 (relative stereo) [Compound I-92] | 100 | 229 |  |  |
| COc1ccc(C(=O)N2c3ccc(F)cc3[C@@H](Nc3ccc(F)cc3)C[C@@H]2C)cc1 (relative stereo) [Compound I-93] | 87 | 378 |  |  |
| C[C@H]1C[C@H](Nc2ccccc2)c2ccccc2N1C(=O)c1ccc(C(C)(C)C)cc1 (relative stereo) [Compound I-134] | 1 | 39 |  |  |
| COc1ccc(C(=O)N2c3ccc(C)cc3[C@@H](Nc3ccc(C)cc3)C[C@H]2C)cc1 (stereo in doubt) [Compound I-98, cis-2,6-dimethyl-1-(4-methoxybenzoyl)-4-(4-methylphenylamino)-1,2,3,4-tetrahydroquinoline] |  |  | 1 | 1 |
| CCc1ccc(C(=O)N2c3ccc(F)cc3C(Nc3ccc(F)cc3)CC2C)cc1 (centres unmarked) [Compound I-36] | 33 | 113 |  |  |
| COC(=O)c1ccc(C(=O)N2c3ccc(F)cc3C(Nc3ccc(F)cc3)CC2C)cc1 (centres unmarked) [Compound I-37] | 1 | 37 |  |  |
| CC1CC(Nc2ccc(F)cc2)c2cc(F)ccc2N1C(=O)c1ccc2c(c1)OCO2 (centres unmarked) [Compound I-38] | 10 | 76 |  |  |
